Reference: patent US4005146A, “Resolution of dl-allethrolone” (Roussel-UCLAF, priority 1971, dated 1977)

Legend:
house flies = experiment: Lethal insecticidal activity on house flies, topical application to dorsal thorax; format: in vivo; conditions: for % Mortality / DL50: 24 hours after topical treatment, 1 μl acetone solution
Description: The lethal insecticidal activity of d-allethrolone chrysanthemate (compound A) was compared with dl-allethrolone chrysanthemate (compound B) on house flies by topically applying 1 μl of an acetone solution thereof to the dorsal thorax of the insect. 50 insects were used for each dose and the number of dead was determined 24 hours after the treatment.

[1] = test system: female german cockroaches; experiment: Knock down effect on female german cockroaches by direct spraying; format: in vivo; conditions: for % KD after 5 min. / % KD after 10 min. / % KD after 15 min. / % KD after 30 min. / % KD after 60 min.: direct spraying 0.5 ml kerosene/acetone; for KD50 times more active than compound B: compound A vs compound B
Description: The knock down effect of the same two compounds was determined on female german cockroaches by direct spraying as 0.5 ml of a solution in equal volumes of kerosene and acetone. 20 insects were used for each test and the knock down effect was determined at 5,10,15,30 and 60 minutes after treatment.

[2] = vs chrysanthemic acid ester of levo allethrolone; Elliott, J. Sci. Food Agr. 1954; cited from earlier work
[3] = Insecticidal activity of d-allethrolone d-trans chrysanthemate vs the dl-allethrolone ester (general statement); format: in vivo

For `C=CCC1=C(C)C(OC(=O)C2C(C=C(C)C)C2(C)C)CC1=O` (racemic) [B, dl-allethrolone chrysanthemate, reference compound], the “% Mortality” value (house flies; 50 mg/l) was 16.2%, the “% Mortality” value (house flies; 100 mg/l) was 33.7% and the “% Mortality” value (house flies; 200 mg/l) was 49.0%. For the same compound, the “% Mortality” value (house flies; 300 mg/l) was 55.1%, the DL50 (house flies) was 224.3 mg/L and the “% KD after 5 min.” value ([1]; 250 mg/l) was 7.5%. For the same compound, the “% KD after 10 min.” value ([1]; 250 mg/l) was 7.5%, the “% KD after 15 min.” value ([1]; 250 mg/l) was 12.5% and the “% KD after 30 min.” value ([1]; 250 mg/l) was 12.5%. The “% KD after 60 min.” value ([1]; 250 mg/l) was 12.5%, the “% KD after 5 min.” value ([1]; 500 mg/l) was 30.9% and the “% KD after 10 min.” value ([1]; 500 mg/l) was 50.0%. For the same compound, the “% KD after 15 min.” value ([1]; 500 mg/l) was 54.7%, the “% KD after 30 min.” value ([1]; 500 mg/l) was 47.6% and the “% KD after 60 min.” value ([1]; 500 mg/l) was 45.2%. For the same compound, the “% KD after 5 min.” value ([1]; 1000 mg/l) was 46.1%, the “% KD after 10 min.” value ([1]; 1000 mg/l) was 64.1% and the “% KD after 15 min.” value ([1]; 1000 mg/l) was 74.3%. The “% KD after 30 min.” value ([1]; 1000 mg/l) was 79.4% and the “% KD after 60 min.” value ([1]; 1000 mg/l) was 89.7%.

With `C=CCC1=C(C)[C@@H](OC(=O)C2C(C=C(C)C)C2(C)C)CC1=O` (stereo partly drawn) [A, d-allethrolone chrysanthemate] the “% Mortality” value (house flies; 25 mg/l) was 49.0%, the “% Mortality” value (house flies; 50 mg/l) was 45.6% and the “% Mortality” value (house flies; 75 mg/l) was 76.6%. The “% Mortality” value (house flies; 100 mg/l) was 65.3%, the DL50 (house flies) was 54 mg/L and the “times more active than compound B (lethal activity)” value (house flies; compound A vs compound B, Table II) was 4.15 times. For the same compound, the “% KD after 5 min.” value ([1]; 250 mg/l) was 45.0%, the “% KD after 10 min.” value ([1]; 250 mg/l) was 52.5% and the “% KD after 15 min.” value ([1]; 250 mg/l) was 65.0%. For the same compound, the “% KD after 30 min.” value ([1]; 250 mg/l) was 62.5%, the “% KD after 60 min.” value ([1]; 250 mg/l) was 65.0% and the “% KD after 5 min.” value ([1]; 500 mg/l) was 61.9%. For the same compound, the “% KD after 10 min.” value ([1]; 500 mg/l) was 71.4%, the “% KD after 15 min.” value ([1]; 500 mg/l) was 83.3% and the “% KD after 30 min.” value ([1]; 500 mg/l) was 85.7%. For the same compound, the “% KD after 60 min.” value ([1]; 500 mg/l) was 88.0%, the “% KD after 5 min.” value ([1]; 1000 mg/l) was 100% and the “% KD after 10 min.” value ([1]; 1000 mg/l) was 100%. The “% KD after 15 min.” value ([1]; 1000 mg/l) was 100%, the “% KD after 30 min.” value ([1]; 1000 mg/l) was 100% and the “% KD after 60 min.” value ([1]; 1000 mg/l) was 100%. The “KD50 times more active than compound B” value ([1]; 5 minutes) was “about 4.3 times”, the “KD50 times more active than compound B” value ([1]; 30 minutes) was 2.8 times and the “times more effective as an insecticide than the ester of levo allethrolone” value [2] was 4 times.

For `C=CCC1=C(C)[C@@H](OC(=O)[C@@H]2[C@@H](C=C(C)C)C2(C)C)CC1=O` [d-allethrolone d-trans chrysanthemate], the “insecticidal activity relative to the corresponding dl-allethrolone ester” value [3] was “much superior insecticidal activity”.
